Assay results from the OligoGym collection.
After the bases stand the sugars from the 5' end (letter, count) and the backbone: PS all phosphorothioate, else s phosphorothioate and o phosphodiester by linkage. Methylation of C is not given here. e = 2'-O-(2-methoxyethyl) (MOE); k = constrained ethyl (cEt); d = 2'-deoxy (DNA); m = 2'-O-methyl

Target: HSD17B13
Details: ASO, HepaRG

## GCAAAGTTTGGGCAGA (sugars k3 d10 k3, PS)
1 µM
  target mRNA inhibition: 50%

## GCAAATACAGCAGTAC (sugars k3 d10 k3, PS)
1 µM
  target mRNA inhibition: 56%

## GCAAGCCAACAGAGAG (sugars k3 d1 m1 d8 k3, PS)
1 µM
  target mRNA inhibition: 26%

## GCAATAGTACTATAGT (sugars k3 d10 k3, PS)
1 µM
  target mRNA inhibition: 39%

## GCACATCATGTTTTGC (sugars k3 d10 k3, PS)
1 µM
  target mRNA inhibition: 44%

## GCAGAAATTCACCTTG (sugars k3 d1 m1 d8 k3, PS)
1 µM
  target mRNA inhibition: 54%

## GCAGAAATTCACCTTG (sugars k3 d9 k3 e1, PS)
1 µM
  target mRNA inhibition: 62%

## GCAGAATATATACTAG (sugars k3 d10 k3, PS)
1 µM
  target mRNA inhibition: 55%

## GCAGAGACAGTAGATT (sugars k3 d10 k3, PS)
1 µM
  target mRNA inhibition: 63%

## GCAGATTATTATGTGA (sugars k3 d10 k3, PS)
1 µM
  target mRNA inhibition: 59%

## GCAGTAAAGTGCTAAG (sugars k3 d10 k3, PS)
0.02 µM
  target mRNA inhibition: 44%
0.078 µM
  target mRNA inhibition: 37%
0.313 µM
  target mRNA inhibition: 62%
1 µM
  target mRNA inhibition: 83%
1.25 µM
  target mRNA inhibition: 78%
5 µM
  target mRNA inhibition: 91%

## GCATAAGTTACCAGAG (sugars k3 d10 k3, PS)
0.02 µM
  target mRNA inhibition: 0%
0.078 µM
  target mRNA inhibition: 0%
0.313 µM
  target mRNA inhibition: 40%
1 µM
  target mRNA inhibition: 79%
1.25 µM
  target mRNA inhibition: 51%
5 µM
  target mRNA inhibition: 85%

## GCATATTCATTTGGCC (sugars k3 d10 k3, PS)
1 µM
  target mRNA inhibition: 6%

## GCATCAAGACATTCTA (sugars k3 d1 m1 d8 k3, PS)
1 µM
  target mRNA inhibition: 51%

## GCATCAAGACATTCTA (sugars k3 d9 k3 e1, PS)
0.02 µM
  target mRNA inhibition: 0%
0.078 µM
  target mRNA inhibition: 8%
0.313 µM
  target mRNA inhibition: 13%
1 µM
  target mRNA inhibition: 84%
1.25 µM
  target mRNA inhibition: 31%
5 µM
  target mRNA inhibition: 74%

## GCATGGCTACAGATTG (sugars k3 d1 m1 d8 k3, PS)
0.02 µM
  target mRNA inhibition: 2%
0.078 µM
  target mRNA inhibition: 2%
0.313 µM
  target mRNA inhibition: 31%
1 µM
  target mRNA inhibition: 76%
1.25 µM
  target mRNA inhibition: 61%
5 µM
  target mRNA inhibition: 78%

## GCATGGCTACAGATTG (sugars k3 d10 k3, PS)
1 µM
  target mRNA inhibition: 56%

## GCATGGCTACAGATTG (sugars kkdddddddddkekek, PS)
1 µM
  target mRNA inhibition: 41%

## GCATTAATGCCACCCT (sugars k3 d10 k3, PS)
1 µM
  target mRNA inhibition: 36%

## GCATTCATCAGATGTT (sugars k3 d10 k3, PS)
0.02 µM
  target mRNA inhibition: 3%
0.078 µM
  target mRNA inhibition: 24%
0.313 µM
  target mRNA inhibition: 66%
1 µM
  target mRNA inhibition: 89%
1.25 µM
  target mRNA inhibition: 86%
5 µM
  target mRNA inhibition: 91%

## GCCAAAAATCAGCCAC (sugars k3 d10 k3, PS)
1 µM
  target mRNA inhibition: 11%

## GCCAACACTAATCTCA (sugars k3 d10 k3, PS)
1 µM
  target mRNA inhibition: 40%

## GCCACTGGATGGATTT (sugars k3 d10 k3, PS)
1 µM
  target mRNA inhibition: 36%

## GCCACTGTGACGATGT (sugars k3 d10 k3, PS)
1 µM
  target mRNA inhibition: 9%

## GCCAGTACAGTTCCTT (sugars k3 d10 k3, PS)
1 µM
  target mRNA inhibition: 61%

## GCCTAAAATTGTCTAA (sugars k3 d10 k3, PS)
1 µM
  target mRNA inhibition: 32%

## GCCTAAACATTTCTCA (sugars k3 d10 k3, PS)
1 µM
  target mRNA inhibition: 2%

## GCCTAAAGGAGATCTG (sugars k3 d10 k3, PS)
1 µM
  target mRNA inhibition: 67%

## GCCTTACCAGAATTTA (sugars k3 d10 k3, PS)
1 µM
  target mRNA inhibition: 75%

## GCGATAGATCTCTTCT (sugars k3 d10 k3, PS)
1 µM
  target mRNA inhibition: 24%

## GCTAAAATGGTCATCT (sugars k3 d10 k3, PS)
1 µM
  target mRNA inhibition: 40%

## GCTAAGTATACTTTCT (sugars k3 d10 k3, PS)
1 µM
  target mRNA inhibition: 37%

## GCTAATGTATGAGGTC (sugars k3 d10 k3, PS)
0.02 µM
  target mRNA inhibition: 0%
0.078 µM
  target mRNA inhibition: 0%
0.313 µM
  target mRNA inhibition: 34%
1 µM
  target mRNA inhibition: 78%
1.25 µM
  target mRNA inhibition: 64%
5 µM
  target mRNA inhibition: 82%

## GCTATAGGTAGCTAAT (sugars k3 d10 k3, PS)
1 µM
  target mRNA inhibition: 20%

## GCTCCAGTAATGAGAA (sugars k3 d10 k3, PS)
1 µM
  target mRNA inhibition: 34%

## GCTGAAACTGCTGATT (sugars k3 d10 k3, PS)
1 µM
  target mRNA inhibition: 38%

## GCTGAGAGTTCTACAC (sugars k3 d10 k3, PS)
1 µM
  target mRNA inhibition: 45%

## GCTGATTAATCTTGAT (sugars k3 d10 k3, PS)
1 µM
  target mRNA inhibition: 48%

## GCTGCTAGTGCCAAAC (sugars k3 d10 k3, PS)
1 µM
  target mRNA inhibition: 67%

## GCTGCTATTTAGGGCA (sugars k3 d10 k3, PS)
1 µM
  target mRNA inhibition: 53%

## GCTGTAATTAGGAAGA (sugars k3 d10 k3, PS)
1 µM
  target mRNA inhibition: 24%

## GCTGUAAGAGTCAGTA (sugars k3 d1 m1 d8 k3, PS)
1 µM
  target mRNA inhibition: 28%

## GCTTAATGTTCAGTTT (sugars k3 d10 k3, PS)
1 µM
  target mRNA inhibition: 50%

## GCTTATGAAGTTAGTA (sugars k3 d10 k3, PS)
0.02 µM
  target mRNA inhibition: 0%
0.078 µM
  target mRNA inhibition: 17%
0.313 µM
  target mRNA inhibition: 27%
1 µM
  target mRNA inhibition: 67%
1.25 µM
  target mRNA inhibition: 66%
5 µM
  target mRNA inhibition: 86%

## GCTTTAGCTTAAACTC (sugars k3 d10 k3, PS)
1 µM
  target mRNA inhibition: 72%

## GCTTTTGTCCACCTTT (sugars k3 d10 k3, PS)
0.02 µM
  target mRNA inhibition: 28%
0.078 µM
  target mRNA inhibition: 44%
0.313 µM
  target mRNA inhibition: 61%
1 µM
  target mRNA inhibition: 68%
1.25 µM
  target mRNA inhibition: 82%
5 µM
  target mRNA inhibition: 97%

## GGAATGCTACTTGAAC (sugars k3 d10 k3, PS)
1 µM
  target mRNA inhibition: 63%

## GGACAAATGCCTGAGA (sugars k3 d10 k3, PS)
1 µM
  target mRNA inhibition: 52%

## GGACCAAGGATATATG (sugars k3 d10 k3, PS)
1 µM
  target mRNA inhibition: 56%

## GGAGGTAGCTTTTGTC (sugars k3 d10 k3, PS)
1 µM
  target mRNA inhibition: 43%

## GGATAAGAAGAGAGCT (sugars k3 d10 k3, PS)
1 µM
  target mRNA inhibition: 46%

## GGATAGTCCATGCAAA (sugars k3 d10 k3, PS)
1 µM
  target mRNA inhibition: 64%

## GGCAAAAGGAGCCAGT (sugars k3 d10 k3, PS)
1 µM
  target mRNA inhibition: 43%

## GGCAAAGATCTGGCCA (sugars k3 d10 k3, PS)
1 µM
  target mRNA inhibition: 10%

## GGCAAATACAGCAGTA (sugars k3 d10 k3, PS)
1 µM
  target mRNA inhibition: 64%

## GGCAAGACAGACTGTT (sugars k3 d10 k3, PS)
1 µM
  target mRNA inhibition: 75%

## GGCAAGGATACCTGAA (sugars k3 d10 k3, PS)
1 µM
  target mRNA inhibition: 67%

## GGCACTCAGCTGCAGT (sugars k3 d10 k3, PS)
1 µM
  target mRNA inhibition: 49%

## GGCATTAGATGGTAAG (sugars k3 d10 k3, PS)
1 µM
  target mRNA inhibition: 62%

## GGCTACAGATTGGAAT (sugars k3 d10 k3, PS)
1 µM
  target mRNA inhibition: 23%

## GGCTTAATGTTCAGTT (sugars k3 d10 k3, PS)
1 µM
  target mRNA inhibition: 54%

## GGCTTAATTTTCGGGT (sugars k3 d10 k3, PS)
1 µM
  target mRNA inhibition: 17%

## GGGACCAAGGATATAT (sugars k3 d10 k3, PS)
1 µM
  target mRNA inhibition: 17%

## GGGAGGAGGTACTGTC (sugars k3 d10 k3, PS)
1 µM
  target mRNA inhibition: 35%

## GGGAGGTAGCTTTTGT (sugars k3 d1 m1 d8 k3, PS)
1 µM
  target mRNA inhibition: 17%

## GGGCTAATGAAAAAGG (sugars k3 d10 k3, PS)
1 µM
  target mRNA inhibition: 14%

## GGTAATCTCTTCATCC (sugars k3 d10 k3, PS)
1 µM
  target mRNA inhibition: 9%
